The test system of this test is P388 leukemia ip, CD2F1 mice, survival T/C. Kind of test: NCI In Vivo Anticancer Drug Screen. Data for tumor model P388 Leukemia (intraperitoneal) in CD2F1 (CDF1) mice. The conditions noted are these: endpoint: median survival time, higher = longer survival. The essentials: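 Mice carrying the transplanted tumor received test compound or vehicle. Survival was recorded in each group, and the value is the treated-group measurement divided by that of the vehicle-treated control group.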

[1] abbreviates: dose: 25.0 mg/kg/injection, schedule: Q01DX005 (ip), vehicle: Klucel (hydroxypropylcellulose) (HPC).
[2] abbreviates: dose: 50.0 mg/kg/injection, schedule: Q01DX005 (ip), vehicle: Klucel (hydroxypropylcellulose) (HPC).
The mark [3] stands for this setting: dose: 100.0 mg/kg/injection, schedule: Q01DX005 (ip), vehicle: Klucel (hydroxypropylcellulose) (HPC).
Setting [4] is: dose: 200.0 mg/kg/injection, schedule: Q01DX005 (ip), vehicle: Klucel (hydroxypropylcellulose) (HPC).
Setting [5] is: dose: 12.5 mg/kg/injection, schedule: Q01DX009 (ip), vehicle: saline with Tween-80.
[6] abbreviates: dose: 25.0 mg/kg/injection, schedule: Q01DX009 (ip), vehicle: saline with Tween-80.
[7] abbreviates: dose: 50.0 mg/kg/injection, schedule: Q01DX009 (ip), vehicle: saline with Tween-80.
[8] abbreviates: dose: 60.0 mg/kg/injection, schedule: Q01DX005 (ip), vehicle: saline with Tween-80.
Where [9] appears, read: dose: 120.0 mg/kg/injection, schedule: Q01DX005 (ip), vehicle: saline with Tween-80.
The mark [10] stands for this setting: dose: 240.0 mg/kg/injection, schedule: Q01DX005 (ip), vehicle: saline with Tween-80.
Setting [11] is: dose: 100.0 mg/kg/injection, schedule: Q04DX003 (ip), vehicle: Klucel (hydroxypropylcellulose) (HPC).
Where [12] appears, read: dose: 200.0 mg/kg/injection, schedule: Q04DX003 (ip), vehicle: Klucel (hydroxypropylcellulose) (HPC).
The mark [13] stands for this setting: dose: 400.0 mg/kg/injection, schedule: Q04DX003 (ip), vehicle: Klucel (hydroxypropylcellulose) (HPC).
Setting [14] is: dose: 100.0 mg/kg/injection, schedule: Q04DX002 (ip), vehicle: Klucel (hydroxypropylcellulose) (HPC).
Setting [15] is: dose: 200.0 mg/kg/injection, schedule: Q04DX002 (ip), vehicle: Klucel (hydroxypropylcellulose) (HPC).
[16] abbreviates: dose: 400.0 mg/kg/injection, schedule: Q04DX002 (ip), vehicle: Klucel (hydroxypropylcellulose) (HPC).
Setting [17] is: dose: 100.0 mg/kg/injection, schedule: Q01DX009 (ip), vehicle: saline with Tween-80.
[18] abbreviates: dose: 50.0 mg/kg/injection, schedule: Q01DX009 (ip), vehicle: saline.
Where [19] appears, read: dose: 400.0 mg/kg/injection, schedule: Q01DX009 (ip), vehicle: saline.

Molecules are shown by their SMILES. “And” between values parts separate entries of the source, which are not always exact repeats. Equal values may be shown once. Toxic doses and inconclusive results are not listed.

From PubChem BioAssay AID330 (DTP/NCI, 2004) come the findings set out here.

Consider `CCNCCNc1cc(O)c2c(c1O)C(=O)c1ccccc1C2=O`, for which the T/C is 101 % of control and 102 % of control under setting [1]; 110 % of control and 111 % of control under setting [2]; 111 % of control and 112 % of control under setting [3]; 122 % of control under setting [4].

Consider `NC1(N)ON(c2ccc(C=O)cc2)C(c2ccc([N+](=O)[O-])cc2)S1` (stereo not drawn), for which the T/C is 89 % of control under setting [2], 95 % of control under setting [3] and 89 % of control under setting [4].

Turning to `O=C(O)Cc1cccc(=O)c(O)c1C(=O)O`, the T/C is 98 % of control (dose: 50.0 mg/kg/injection, schedule: Q01DX005 (ip), vehicle: saline with Tween-80); 104 % of control (dose: 100.0 mg/kg/injection, schedule: Q01DX005 (ip), vehicle: saline with Tween-80); 96 % of control (dose: 200.0 mg/kg/injection, schedule: Q01DX005 (ip), vehicle: saline with Tween-80).

Consider `COc1cccc2c1C(=O)c1c(O)c3c(c(O)c1C2=O)CC(O)(C(=O)CO)CC3OC1CC(N/C(C)=C/C(C)=O)C(O)C(C)O1` (stereo not drawn), for which the T/C (dose: 10.0 mg/kg/injection, schedule: Q04DX003 (ip), vehicle: saline with Tween-80) was 160 % of control.

For the molecule `CCCCOCN(CCCc1ccccc1)COCCCC`, the T/C by setting is: under setting [5], 89 % of control; under setting [6], 102 % of control; under setting [7], 118 % of control.

As for `CCN(CC)Cc1cc(N=Nc2c(O)ccc3c(N=Nc4ccc(O)c(CN(CC)CC)c4)c(O)ccc23)ccc1O`, the T/C was 108 % of control under setting [2] and 109 % of control under setting [3].

For the molecule `CCN(CC)C(=O)c1cc(OC)c(C(=O)N(CC)CC)cc1OC`, the T/C runs as follows: under setting [8], 100 % of control; under setting [9], 108 % of control; under setting [10], 101 % of control.

Take `COC1=C(OC)C(=O)C(C)(CC=C(C)C)CC1=O` (stereo not drawn): the T/C (dose: 13.0 mg/kg/injection, schedule: Q01DX009 (ip), vehicle: saline + alcohol) is 113 % of control; the T/C (dose: 25.0 mg/kg/injection, schedule: Q01DX009 (ip), vehicle: saline + alcohol) is 113 % of control; the T/C (dose: 50.0 mg/kg/injection, schedule: Q01DX009 (ip), vehicle: saline + alcohol) is 103 % of control.

Take `C=C(CCC(C(=O)O)C1C(O)CC2(C)C3=C(CCC12C)C1(C)CCC(OC(C)=O)C(C)(C)C1CC3)C(C)C` (stereo not drawn): the T/C reads like this: under setting [5], 100 % of control; under setting [6], 96 % of control; under setting [7], 98 % of control.

As to `C1COC2(CCC3(CC2)OCCO3)O1`, the T/C reads like this: (dose: 25.0 mg/kg/injection, schedule: Q04DX003 (ip), vehicle: Klucel (hydroxypropylcellulose) (HPC)) 100 % of control; (dose: 50.0 mg/kg/injection, schedule: Q04DX003 (ip), vehicle: Klucel (hydroxypropylcellulose) (HPC)) 103 % of control; (dose: 100.0 mg/kg/injection, schedule: Q01DX009 (ip), vehicle: saline sonified) 111 % of control; under setting [11], 101 % of control; (dose: 200.0 mg/kg/injection, schedule: Q01DX009 (ip), vehicle: saline sonified) 100 % of control; under setting [12], 100 % of control. Further, the T/C is 100 % of control (dose: 400.0 mg/kg/injection, schedule: Q01DX009 (ip), vehicle: saline sonified) and 99 % of control under setting [13].

In the case of `CCCNc1nc(C)nc2[nH]cc(C)c12`, the T/C is 100 % of control under setting [2] and 102 % of control under setting [3].

Regarding `CNC(=O)c1ccccc1CC1(O)c2ccccc2Oc2ccccc21`, the T/C runs as follows: under setting [2], 100 % of control; under setting [3], 99 % of control; under setting [4], 96 % of control.

`Cc1ccc(N=Nc2c(-c3ccccc3)nn(C(=S)S)c2C)cc1`: the T/C (dose: 25.0 mg/kg/injection, schedule: Q04DX002 (ip), vehicle: Klucel (hydroxypropylcellulose) (HPC)) is 97 % of control; the T/C (dose: 50.0 mg/kg/injection, schedule: Q04DX002 (ip), vehicle: Klucel (hydroxypropylcellulose) (HPC)) is 107 % of control; the T/C under setting [14] is 105 % of control; the T/C under setting [15] was 96 % of control; the T/C under setting [16] is 107 % of control.

In the case of `COC1=C2CCC3c4cc(OC)c(OC)cc4CC[N+]3=C2CC1` (stereo not drawn), the T/C is 97 % of control under setting [1], 99 % of control under setting [2] and 113 % of control under setting [3].

For `N=c1c(C(=O)OCc2ccccc2)ncc(CCl)n1O`, the T/C reads like this: under setting [6], 114 % of control; under setting [7], 124 % of control; under setting [17], 123 % of control; (dose: 200.0 mg/kg/injection, schedule: Q01DX009 (ip), vehicle: saline with Tween-80) 116 % of control.

Regarding `CCCCN1CN(CCCC)CN(C(=S)c2c(Cl)cccc2Cl)C1`, the T/C was 102 % of control under setting [6], 102 % of control under setting [7] and 105 % of control under setting [17].

In the case of `O=C1c2ccccc2C(=O)c2c1ccc1c2OCO1`, the T/C was 96 % of control (dose: 5.0 mg/kg/injection, schedule: Q01DX005 (ip), vehicle: Klucel (hydroxypropylcellulose) (HPC)); 87 % of control (dose: 10.0 mg/kg/injection, schedule: Q01DX005 (ip), vehicle: Klucel (hydroxypropylcellulose) (HPC)); 86 % of control and 88 % of control (dose: 20.0 mg/kg/injection, schedule: Q01DX005 (ip), vehicle: Klucel (hydroxypropylcellulose) (HPC)); 95 % of control (dose: 40.0 mg/kg/injection, schedule: Q01DX005 (ip), vehicle: Klucel (hydroxypropylcellulose) (HPC)).

In the case of `CC(=O)OC1CC2CC(O)(C(=O)CO)CC2C2CCC3=CC(=O)CC3C(C)(O)C12` (stereo not drawn), the T/C is, setting by setting: under setting [8], 100 % of control; under setting [9], 93 % of control; under setting [10], 93 % of control.

`COc1ccc(OC)c(C(=O)c2cccc(C(=O)c3cc(OC)ccc3OC)n2)c1`: the T/C is, setting by setting: under setting [8], 99 % of control; under setting [9], 109 % of control; under setting [10], 119 % of control.

Regarding `CC(=N\NC(N)=S)/C(C)=N/Nc1ccccc1`, the T/C reads like this: under setting [11], 106 % of control; under setting [12], 100 % of control; under setting [13], 100 % of control.

`Cc1nc(N)n[nH]1`: the T/C reads like this: under setting [18], 102 % of control; (dose: 100.0 mg/kg/injection, schedule: Q01DX009 (ip), vehicle: saline) 109 % of control; (dose: 200.0 mg/kg/injection, schedule: Q01DX009 (ip), vehicle: saline) 105 % of control; under setting [19], 96 % of control.

In the case of `COC(=O)CCC1=C(C)c2cc3[n-]c(cc4nc(cc5[n-]c(cc1n2)c(CCC(=O)OC)c5C)C(C(C)=O)=C4C)c(C(C)=O)c3C.[Cl-].[Fe+3]`, the T/C is, setting by setting: under setting [2], 104 % of control; under setting [3], 106 % of control; under setting [4], 99 % of control.

Regarding `NC(=O)SCC(N)C(=O)O` (stereo not drawn), the T/C by setting is: under setting [7], 111 % of control; under setting [18], 108 % of control; (dose: 50.0 mg/kg/injection, schedule: Q01DX009 (ip), vehicle: suspension in saline) 108 % of control; under setting [17], 114 % of control and 119 % of control; (dose: 100.0 mg/kg/injection, schedule: Q01DX009 (ip), vehicle: suspension in saline) 121 % of control; (dose: 400.0 mg/kg/injection, schedule: Q01DX009 (ip), vehicle: saline with Tween-80) 101 % of control. In addition, the T/C under setting [19] is 98 % of control and 93 % of control.

In the case of `O=C1SC(Nc2ccccc2)/C(=N\N=C2/C(Nc3ccccc3)SC(=O)N2Cc2ccccc2)N1Cc1ccccc1` (stereo not drawn), the T/C by setting is: under setting [14], 86 % of control; under setting [15], 94 % of control; under setting [16], 91 % of control.

For `CCCCN(CCCC)CCC(O)c1cc2c(Cl)cc(Cl)cc2c2cc(C(F)(F)F)ccc12` (stereo not drawn), the T/C by setting is: under setting [7], 100 % of control; under setting [17], 96 % of control.

In the case of `CN(C)c1ccc(C2CC(C)(O)Oc3cc4c(cc32)OCO4)cc1` (stereo not drawn), the T/C is, setting by setting: (dose: 60.0 mg/kg/injection, schedule: Q01DX005 (ip), vehicle: Klucel (hydroxypropylcellulose) (HPC)) 102 % of control; (dose: 120.0 mg/kg/injection, schedule: Q01DX005 (ip), vehicle: Klucel (hydroxypropylcellulose) (HPC)) 110 % of control; (dose: 240.0 mg/kg/injection, schedule: Q01DX005 (ip), vehicle: Klucel (hydroxypropylcellulose) (HPC)) 108 % of control.
